Converted amounts (≈) assume the structure as drawn. Non-standard residues stand in square brackets, D forms with d. Residues, ends and D or L forms follow the SMILES beside them. Dab(3S-OH) = NC[C@H](O)[C@H](N)C(=O)O; Phe(2-F) = N[C@@H](Cc1ccccc1F)C(=O)O; ΔZArg = N=C(N)NCC/C=C(\N)C(=O)O; dOrn = NCCC[C@@H](N)C(=O)O; Dab = NCC[C@H](N)C(=O)O
Tests used:
[1] = tested on: Escherichia coli COL; conditions: Ambler class A carbapenemase; KPC-2 + TEM-1 + CTX-M9
Text: (§1) Reference strains are from the German Collection of Microorganisms and Cell Cultures (DSMZ), the American Type Culture Collection (ATCC), the National Collection of Type Cultures (NCTC), and the Medical and Molecular Microbiology, Faculty of Science and Medicine, University of Fribourg, Switzerland.

[2] = tested on: Klebsiella pneumoniae A33504; conditions: Ambler class A carbapenemase; KPC-2+ SHV-11 + TEM-1 + CTX-M-2 + OXA-9
Text: as §1

[3] = tested on: Enterobacter cloacae BEU; conditions: Ambler class D carbapenemase; OXA-48 + CTX-M15 + SHV-12 + TEM-1 + OXA-1 + DHA-1
Text: as §1

[4] = in vitro; conditions: human, cryopreserved pooled hepatocytes
[5] = in vivo; conditions: female, plasma, iv
Procedure: Pharmacokinetic analyses were performed by Pharmacelsus (Saarbrücken, Germany). […] Blood (100 μl) was collected from three animals per time point (5, 10, 20, 30, 60, and 120 min postdose for mice and 5, 15, 30, 60, 180, and 420 min postdose for rats) in tubes containing K3-EDTA as an anticoagulant. Samples were stored on ice and centrifuged at 6,000 rpm for 10 min at 4°C. A sample volume of 50 μl was mixed with 5 μl of solvent (acetonitrile-H2O-DMSO, [5/4/1, vol/vol/vol] plus 1% formic acid). A volume of 10 μl of solvent containing the internal standard and 50 μl of precipitant (10% TCA) were added to 55 μl of sample. The mixture was vortexed and centrifuged at 6,000 × g (room temperature) for 10 min. The protein-free supernatant was analyzed by LC-MS using an Ultimate 3000RS ultrahigh-performance liquid chromatograph (U-HPLC) coupled with an Orbitrap Q Exactive mass spectrometer.
Analytes were separated on a Accurore phenyl-hexyl analytical column (2.1 by 50 mm, 2.6 μm; Thermo, Germany) using a linear gradient of mobile phase A (acetonitrile-0.2% heptafluorobutyric acid)-mobile phase B (water-0.2% heptafluorobutyric acid), starting from 5% mobile phase A to 97% in 2.2 min, and a flow rate of […]. Peaks were analyzed by mass spectrometry (ESI ionization in MRM mode) using Xcalibur 4.0 software. The products analyzed, [M + 2H]^2+ and [M + 3H]^3+, were 539.8 and 360.2 Da, respectively. PK parameters were calculated using a noncompartmental analysis model and Kinetica 5.0 software (Thermo Scientific, Waltham, MA). The mean plasma concentrations from all three mice at each time point were used in the calculation.

[6] = in vitro; conditions: plasma, pH 7.4
Procedure: The final incubation volume was 200 μl. All incubations were performed singularly for each compound at each time point. A vehicle control incubation was included using either water or DMSO, along with a control compound known to be metabolized specifically by each species. Each compound was incubated for 0, 15, 30, 60, and 120 min at 37°C. The reactions were stopped by the addition of 40% TCA in water containing an internal standard (NOSO-95216, 1 μM final concentration) for the test compounds, or methanol for the control compounds, at the appropriate time points. The vehicle control incubation was incubated for 120 min only. The termination plates were centrifuged at 3,000 rpm for 45 min at 4°C to precipitate the protein. Following protein precipitation, the test compound sample supernatants were diluted with analytical-grade water, whereas the control compounds were diluted with an internal standard (metoprolol) in water. The test compound samples were analyzed by LC-MS/MS.

[7] = in vitro; conditions: plasma (EDTA anticoagulant), pH 7.4
Procedure: The […] were performed by Cyprotex Discovery Ltd. (Macclesfield, UK). […] The experiment was performed using equilibrium dialysis (RED device) with the two compartments separated by a semipermeable membrane. Buffer (pH 7.4) was added to one side of the membrane and the plasma solution to the other. After equilibration (4 h), samples were taken from both sides of the membrane. Calibration standards were prepared in plasma and buffer. All incubations were performed in triplicate. A control compound was included in each experiment. Incubation of the control compound samples was terminated with acetonitrile containing an internal standard (metoprolol). Incubation of the test compound samples was terminated with 40% TCA in water containing in internal standard (NOSO-95216; 1 μM final concentration). All samples were centrifuged and further diluted with water prior to analysis. The solutions for each batch of control compounds were combined into two groups (protein free and protein containing) and cassette analyzed by LC-MS/MS using two sets of calibration standards for protein-free (seven points) and protein-containing solutions (seven points).

[8] = tested on: CHO-K1 cells; conditions: 512 μM, 24 h; S9 medium negative control 0.7%
Procedure: The test was conducted by Eurofins Panlabs. […] At the end of the incubation period the cells were fixed, and their DNA was stained with Hoechst. The visualization and scoring of the cells was done using an automated fluorescence microscope coupled with proprietary automated image analysis software ([46]). The percent micronucleated cells was calculated.

[9] = target: Nav 1.5 human sodium ion channel (Homo sapiens, UniProt Q14524); test: cell-based
Procedure: Inhibition of the Nav 1.5 human sodium ion channel was determined by Eurofins Panlabs in HEK-293 cells stably transfected with human Nav1.5 cDNA (type V voltage-gated sodium channel alpha subunit, GenBank accession number NM_000335) using IonWorks Quattro automated whole-cell patch clamp electrophysiology. […] In this method, the voltage protocol is applied prior to compound addition (Pre), the compounds are added and incubated for 600 s at room temperature, and then the voltage protocol is applied a final time (Post) on the IonWorks Quattro.

[10] = in vitro; conditions: cryopreserved pooled hepatocytes
Procedure: The hepatocyte metabolic stability assays were performed by Cyprotex Discovery Ltd. (Macclesfield, UK). This assay utilizes cryopreserved pooled hepatocytes from different species (mouse, rat, dog, monkey, and human), stored in liquid nitrogen prior to use. […] The final incubation volume was 500 μl. Two control compounds were included with each species alongside an appropriate vehicle control. […] The termination plates were centrifuged at 2,500 rpm at 4°C for 30 min to precipitate the protein. Following protein precipitation, the test compound sample supernatants were diluted with analytical-grade water, whereas the control compounds were diluted with an internal standard (metoprolol) in water. The test compound samples were analyzed by liquid chromatography-tandem mass spectrometry (LC-MS/MS).

[11] = tested on: E. coli UTI89
Procedure: MIC values were determined using Clinical and Laboratory Standards Institute (CLSI) broth microdilution methodology, colony direct suspension, as described in CLSI document M07-A10 ([42]).

Chain of Nav 1.5 human sodium ion channel (Q14524 1-2015 isoform Q14524-2): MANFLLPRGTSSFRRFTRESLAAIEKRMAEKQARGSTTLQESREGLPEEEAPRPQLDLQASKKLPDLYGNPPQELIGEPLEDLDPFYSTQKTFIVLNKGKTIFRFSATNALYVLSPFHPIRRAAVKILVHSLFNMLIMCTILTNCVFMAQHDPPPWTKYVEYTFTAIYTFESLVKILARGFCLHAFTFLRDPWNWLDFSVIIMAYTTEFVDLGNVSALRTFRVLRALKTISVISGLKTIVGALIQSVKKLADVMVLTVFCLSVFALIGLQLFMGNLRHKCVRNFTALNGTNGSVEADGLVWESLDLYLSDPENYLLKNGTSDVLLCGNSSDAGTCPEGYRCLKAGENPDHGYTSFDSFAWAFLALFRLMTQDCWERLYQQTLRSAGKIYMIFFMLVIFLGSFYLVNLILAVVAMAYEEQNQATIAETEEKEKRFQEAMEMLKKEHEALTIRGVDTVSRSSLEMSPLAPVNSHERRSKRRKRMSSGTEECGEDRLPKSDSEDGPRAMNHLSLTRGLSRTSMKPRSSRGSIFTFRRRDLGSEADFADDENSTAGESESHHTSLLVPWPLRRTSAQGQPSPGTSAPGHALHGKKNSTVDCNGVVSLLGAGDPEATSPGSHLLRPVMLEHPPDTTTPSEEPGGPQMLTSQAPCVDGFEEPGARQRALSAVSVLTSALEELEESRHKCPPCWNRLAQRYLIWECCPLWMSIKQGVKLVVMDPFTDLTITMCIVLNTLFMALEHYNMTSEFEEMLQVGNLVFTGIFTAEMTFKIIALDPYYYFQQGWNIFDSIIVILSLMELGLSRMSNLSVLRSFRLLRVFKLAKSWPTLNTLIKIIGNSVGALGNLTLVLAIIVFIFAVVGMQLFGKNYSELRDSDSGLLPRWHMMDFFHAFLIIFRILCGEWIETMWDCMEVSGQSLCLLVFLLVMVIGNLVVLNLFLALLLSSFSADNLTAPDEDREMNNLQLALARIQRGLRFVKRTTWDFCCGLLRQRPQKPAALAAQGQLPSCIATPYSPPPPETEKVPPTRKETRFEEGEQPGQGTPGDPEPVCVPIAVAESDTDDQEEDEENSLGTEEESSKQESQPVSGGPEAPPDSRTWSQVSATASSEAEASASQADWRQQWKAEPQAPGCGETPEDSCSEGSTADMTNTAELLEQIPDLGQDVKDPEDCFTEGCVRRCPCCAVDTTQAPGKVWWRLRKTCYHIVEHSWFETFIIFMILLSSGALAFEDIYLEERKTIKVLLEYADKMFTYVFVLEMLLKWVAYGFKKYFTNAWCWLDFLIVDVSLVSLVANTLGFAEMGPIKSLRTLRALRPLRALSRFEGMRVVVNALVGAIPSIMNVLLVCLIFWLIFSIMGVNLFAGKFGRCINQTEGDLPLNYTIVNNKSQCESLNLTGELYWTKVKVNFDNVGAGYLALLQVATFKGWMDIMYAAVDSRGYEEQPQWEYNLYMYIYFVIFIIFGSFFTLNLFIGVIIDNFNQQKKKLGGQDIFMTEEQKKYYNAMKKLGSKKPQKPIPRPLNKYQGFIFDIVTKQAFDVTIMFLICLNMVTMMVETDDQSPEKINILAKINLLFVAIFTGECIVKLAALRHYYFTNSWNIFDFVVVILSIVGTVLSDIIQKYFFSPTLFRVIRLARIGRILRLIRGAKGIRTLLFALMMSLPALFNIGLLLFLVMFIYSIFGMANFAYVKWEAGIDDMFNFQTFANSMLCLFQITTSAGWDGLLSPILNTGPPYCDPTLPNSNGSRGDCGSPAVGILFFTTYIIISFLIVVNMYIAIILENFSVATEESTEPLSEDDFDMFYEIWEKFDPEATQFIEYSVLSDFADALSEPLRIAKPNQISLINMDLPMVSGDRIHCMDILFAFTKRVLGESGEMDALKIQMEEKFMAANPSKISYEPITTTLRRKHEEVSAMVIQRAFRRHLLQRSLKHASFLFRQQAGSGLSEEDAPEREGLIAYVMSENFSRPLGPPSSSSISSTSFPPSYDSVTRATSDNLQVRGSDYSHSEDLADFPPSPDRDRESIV

Work on polymyxin B [PMB] yielded an MIC [1] of 0.5 µg/mL, an MIC [2] of 0.5 µg/mL and an MIC [3] of 16 µg/mL.

In the case of N=C(N)NCC/C=C(\NC(=O)[C@H](CCCCN)NC(=O)[C@H](Cc1ccccc1F)NC(=O)[C@@H]1CCCN1C(=O)[C@@H](CCCN)NC(=O)CNC(=O)[C@H](CCN)NC(=O)[C@@H](NC(=O)[C@@H](N)CCCCN)[C@@H](O)CN)C(=O)O [NOSO-502] (H-K[Dab(3S-OH)][Dab]G[dOrn]P[Phe(2-F)]K[ΔZArg]-OH), the half-life at 1 μM [4] is reported as 5.48 h, the AUC(0-t) ([5]; CD-1, mouse, 30 mg/kg) is reported as 8880 ng·h/mL and the Cmax ([5]; CD-1, mouse, 30 mg/kg) is reported as 23500 ng/mL. For the same compound, the Vd ([5]; CD-1, mouse, 30 mg/kg) was 0.66 L/kg, the clearance ([5]; CD-1, mouse, 30 mg/kg) was 18.8 mL/min/kg and the half-life ([5]; CD-1, mouse, 30 mg/kg) was 0.417 h. The AUC(0-t) ([5]; Sprague-Dawley, rat, 15 mg/kg) was 7990 ng·h/mL, the Cmax ([5]; Sprague-Dawley, rat, 15 mg/kg) was 40700 ng/mL and the Vd ([5]; Sprague-Dawley, rat, 15 mg/kg) was 0.94 L/kg. For the same compound, the clearance ([5]; Sprague-Dawley, rat, 15 mg/kg) was 32 mL/min/kg, the half-life ([5]; Sprague-Dawley, rat, 15 mg/kg) was 1.5 h and the half-life at 10 μM ([6]; dog) was 2.63 h. The half-life at 10 μM ([6]; human) was 1.32 h, the half-life at 10 μM ([6]; monkey) was 1.6 h and the half-life at 10 μM ([6]; mouse) was 0.9 h. It also gave a half-life at 10 μM ([6]; rat) of 0.6 h, a fraction unbound at 4 h, 2 μM ([7]; dog) of 0.176 and a fraction unbound at 4 h, 2 μM ([7]; human) of 0.187. The fraction unbound at 4 h, 2 μM ([7]; mouse) was 0.198, the fraction unbound at 4 h, 2 μM ([7]; rat) was 0.205 and the cells with micronuclei [8] was 0.61%. For the same compound, the IC50 [9] was over 512 µM, the half-life at 1 μM ([10]; dog) was 8.05 h and the half-life at 1 μM ([10]; monkey) was 11.6 h. For the same compound, the half-life at 1 μM ([10]; mouse) was 3.2 h, the half-life at 1 μM ([10]; rat) was 3.23 h and the MIC [11] was 4 µg/mL (≈ 3.71 µM).
